We go through 3 compounds from US20030118646A1, “(R, S'),(R, R')-amphetaminil, compositions and uses thereof” (priority 2001, published 2003).

Assay [1] concerns stereotyped behaviour in normal rats. As to the kind of experiment: Induction of stereotyped behaviour in normal rats (stereotypy score 0-7). In kind it is in vivo, Male Wistar rats. To be noted: for Stereotypy (Peak) / Stereotypy (Total): normal rats, dose not given; for Stereotypy (Peak) / Stereotypy (Total) / Effect on stereotypy: s.c.; for Stereotypy (Peak): stereotypy score at time of peak effect; for Stereotypy (Total): total stereotypy score; for Effect on stereotypy: whole dose range tested (amphetamine 0.1-5, fusaric acid 20-80, amphetaminils 0.1-10 mg/kg), 300 min. As to the method: (§1) Male Wistar rats (n=4 per group) were randomly allocated to each drug treatment group. Drugs were administered such that, with the exception of fusaric acid, each rat in each group received all doses of the drug or vehicle in a semi random manner according to the modified Latin Square in Table 1. Compounds were administered at the doses: 0.1, 1 and 10 mg/kg s.c. in 100% DMSO (vehicle). Amphetamine was administered at 0.1, 1 and 5 mg/kg s.c. in saline (vehicle). Fusaric acid was administered at 20, 40 and 80 mg/kg s.c. in saline (vehicle). Rats received each dose of fusaric acid (20, 40 and 80 mg/kg), doses given in order, starting with vehicle. A one-week interval was provided between doses.
(§2) At the start of the experiment, rats were placed in standard perspex behaviour boxes with a visible grid on the floor to allow determination of locomotor activity. The animals were allowed to acclimatise to their environment for 1 hour prior to drug/saline administration. Following drug administration animals were returned to the behaviour cages and locomotor activity was assessed for a further 5 hours or until baseline (zero activity for 30 minutes) was achieved, whichever was sooner. Locomotor activity was assessed by videoing the rats throughout the experiment, and counting the number of times a rat crossed a grid line over a period of 5 minutes every 10 minutes. Throughout the experiment animals were scored for stereotyped behaviours for 15 seconds every 10 minutes by a trained observer using the scoring methods described in Table 2.
The mean and standard error for stereotypy activity for 15 seconds every 10 minutes for each rat at each time point was determined. […] Cumulative activity during the 300 min was also calculated, and the effect of dose of drug was analyzed by Kruskall Wallis one-way ANOVA (GraphPad Prizm). Data was also analysed for significant fit to a sigmoidal-shaped log dose-response curve using non-linear regression analysis (GraphPad Prizm)

Assay [2] has as its system locomotor activity in normal rats. As to the kind of experiment: Locomotor activity in normal rats (grid line crossings). To be noted: for Locomotor (Peak) / Locomotor (Total): normal rats, dose not given; for Locomotor (Peak) / Locomotor (Total) / Effect on locomotor activity: s.c.; for Locomotor (Peak): at time of peak effect; for Locomotor (Total): total (cumulative) effect; for Ratio (Peak): ratio locomotor/stereotypy at time of peak effect; for Ratio (Total): ratio locomotor/stereotypy, total effect; for Effect on locomotor activity: whole dose range tested (amphetamine 0.1-5, fusaric acid 20-80, amphetaminils 0.1-10 mg/kg), 300 min. Type of assay: in vivo, Male Wistar rats. As to the method: as §1, §2
Locomotor activity Data The mean and standard error for locomotor activity during 10 minutes for each rat at each time point was determined. […] Cumulative activity during the 300 min was also calculated, and the effect of dose of drug was analyzed by 1 way repeated measures ANOVA followed by Dunnett's test (GraphPad Prizm). Data was also analysed for significant fit to a sigmoidal-shaped log dose-response curve using non-linear regression analysis (GraphPad Prizm).

As for `CC(Cc1ccccc1)NC(C#N)c1ccccc1` (racemic) [Racemic amphetaminil, alpha-[(1-methyl-2-phenylethyl)amino]benzeneacetonitrile], in assay [1] (10 mg/kg s.c.), the Duration of stereotypy result is on record as “sustained for the duration of the experiment”. Besides, the “Differences in overall stereotypy between dose groups” value in assay [1] (0.1-10 mg/kg s.c., Kruskall Wallis) is reported as “did not reach statistical significance”. Besides, in assay [1], the “Stereotypy (Peak)” value was 5.0, the “Stereotypy (Total)” value was found to be 115 and the Effect on stereotypy result is “increased stereotypy in a log dose-related manner”. Besides, in assay [2], the “Locomotor (Peak)” value is given as 37, the “Locomotor (Total)” value is 560, the “Ratio (Peak)” value is on record as 7.4 and the “Ratio (Total)” value was 4.9. In assay [2], the “Effect on locomotor activity” value is “increased locomotor activity only at the highest dose of 10 mg/kg”.

With `C[C@H](Cc1ccccc1)NC(C#N)c1ccccc1` (stereo partly drawn) [(R,R′), (R,S′)-amphetaminil, alpha-[(1R-methyl-2-phenylethyl)amino]-benzeneacetonitrile], the “Stereotypy compared with racemic amphetaminil” value in assay [1] (FIGS. 7 and 8) is “less stereotypy than the racemic form of amphetaminil”. For the same compound, in assay [1], the “Stereotypy (Peak)” value was found to be 3.3, the “Stereotypy (Total)” value stood at 57 and the Effect on stereotypy entry is on record as “tended to increase stereotypy at 10 mg/kg”. For the same compound, the “Locomotor/stereotypy ratio compared with racemic amphetaminil” value in assay [2] (at both the time of peak effect and total effect) was “higher ratio”. For the same compound, in assay [2], the “Locomotor (Peak)” value is listed as 62, the “Locomotor (Total)” value is 625, the “Ratio (Peak)” value was 18.8 and the “Ratio (Total)” value was found to be 11. Moreover, in assay [2], the “Effect on locomotor activity” value is on record as “increased locomotor activity only at the highest dose of 10 mg/kg”.

For `CC(N)Cc1ccccc1` (stereo not shown) [Amphetamine], in assay [1] (5 mg/kg s.c.), the “Overall stereotypy during the 300 min” value is reported as “tended to increase overall stereotypy”. In assay [1], the “Stereotypy (Peak)” value is 5, the “Stereotypy (Total)” value came out at 81 and the Effect on stereotypy entry was “log dose-related increase stereotypy”. The “Time of maximum effect on locomotor activity after administration” value in assay [2] (5 mg/kg s.c.) was 30 min. The “Cumulative locomotor activity during the 300 min” value in assay [2] (5 mg/kg s.c., compared to vehicle) is recorded as “significantly increased”. In assay [2], the “Locomotor (Peak)” value was found to be 125, the “Locomotor (Total)” value stood at 850, the “Ratio (Peak)” value is reported as 25 and the “Ratio (Total)” value came out at 10.5. In assay [2], the “Effect on locomotor activity” value is “dose-related increase in locomotor activity”.
